Entries after “also recorded” stand apart in the source; their conditions may differ. Read-outs that look alike come from different tables or passages of the source.
Columns and labels:
SK-MEL-2 = assay: NCI panel growth inhibition, SK-MEL-2; type: cell-based; conditions: Homo sapiens, Melanoma
Text: (§1) Compound I has also been tested in a battery of tumor cell assays known as the NCI panel.

UACC-62 = assay: NCI panel growth inhibition, UACC-62; type: cell-based; conditions: Homo sapiens, Melanoma
Text: as §1

IGROV1 = assay: NCI panel growth inhibition, IGROV1; type: cell-based; conditions: Homo sapiens, IGROV-1, Ovarian
Text: as §1

ADR-RES = assay: NCI panel growth inhibition, ADR-RES; type: cell-based; conditions: Breast Cancer
Text: as §1

PC-3 = assay: NCI panel growth inhibition, PC-3; type: cell-based; conditions: Homo sapiens, Prostate
Text: as §1

EKVX = assay: NCI panel growth inhibition, EKVX; type: cell-based; conditions: Homo sapiens, Non-Small Cell Lung Cancer
Text: as §1

SN12C = assay: NCI panel growth inhibition, SN12C; type: cell-based; conditions: Homo sapiens, Renal
Text: as §1

TK-10 = assay: NCI panel growth inhibition, TK-10; type: cell-based; conditions: Homo sapiens, Renal
Text: as §1

LOX IMVI = assay: NCI panel growth inhibition, LOX IMVI; type: cell-based; conditions: Homo sapiens, Melanoma
Text: as §1

SNB-19 = assay: NCI panel growth inhibition, SNB-19; type: cell-based; conditions: Homo sapiens, CNS Cancer
Text: as §1

T-47D = assay: NCI panel growth inhibition, T-47D; type: cell-based; conditions: Homo sapiens, T47D, Breast Cancer
Text: as §1

UACC-257 = assay: NCI panel growth inhibition, UACC-257; type: cell-based; conditions: Homo sapiens, Melanoma
Text: as §1

HOP-62 = assay: NCI panel growth inhibition, HOP-62; type: cell-based; conditions: Homo sapiens, Non-Small Cell Lung Cancer
Text: as §1

A498 xenografts = assay: Renal cancer xenografts in nu/nu mice (FIG. 9); type: in vivo; conditions: 30 mg/kg BID, 20 days, female nu/nu mice
Protocol: Female nu/nu mice bearing A498 xenografts (human renal cancer cells) were maintained until tumor volume measured about 100 mm^3. At that point, treatment began with compound I at a rate of 30 mg/kg administered twice per day.

MALME-3M = assay: NCI panel growth inhibition, MALME-3M; type: cell-based; conditions: Homo sapiens, Melanoma
Text: as §1

MCF7 = assay: NCI panel growth inhibition, MCF7; type: cell-based; conditions: Homo sapiens, Breast Cancer
Text: as §1

in vivo = assay: in vivo; design: species or system mice; conditions: female, nu/nu, mouse
Protocol: At this range, which was the effective dosage used in the tests shown in FIGS. 8 and 9, plasma concentration of compound I reaches about 5000-7000 ng/mL.
Compound I was administered in a single dose at a rate of 30 mg/kg to each test subject, and plasma levels were monitored for 12 hours thereafter. Plasma levels of Compound I peaked around 2-4 hours after administration in each case, and had essentially returned to zero 8 hours after the single dose at this rate, as shown in FIG. 10. The peak plasma concentration for these subjects, after a single injection at the dose shown to be effective for inhibiting tumor growth of each xenograft (see the preceding examples, and FIGS. 8-9) were generally below about 7000 ng/mL.

SK-MEL-5 = assay: NCI panel growth inhibition, SK-MEL-5; type: cell-based; conditions: Homo sapiens, Melanoma
Text: as §1

OVCAR-4 = assay: NCI panel growth inhibition, OVCAR-4; type: cell-based; conditions: Homo sapiens, Ovarian
Text: as §1

OVCAR-3 = assay: Tumor cell culture growth, optical density at 459 nm (FIG. 7), OVCAR-3; type: cell-based; conditions: OVCAR-3, 5-10 micromolar
HCT-116 = assay: NCI panel growth inhibition, HCT-116; type: cell-based; conditions: Homo sapiens, Colon Cancer
Text: as §1

KM12 = assay: NCI panel growth inhibition, KM12; type: cell-based; conditions: Homo sapiens, Colon Cancer
Text: as §1

HS 578T = assay: NCI panel growth inhibition, HS 578T; type: cell-based; conditions: Homo sapiens, Breast Cancer
Text: as §1

mTOR = mTOR (Homo sapiens, UniProt P42345); assay: Inhibition of kinase activity of other lipid kinases, mTOR; type: biochemical; conditions: read-out: IC-50 for inhibition of kinase activity, mTOR
NCI-H226 = assay: NCI panel growth inhibition, NCI-H226; type: cell-based; conditions: Homo sapiens, Non-Small Cell Lung Cancer
Text: as §1

p110γ = target: T1, p110γ (Homo sapiens, UniProt P48736); assay: Cell-based p110γ assay: fMLP stimulated CD63 movement to surface of basophils
T1 construct: endogenous in cells; host or cells: basophils
Protocol: The p110α assay used SW3T3 cells stimulated by PDGF, and p110 kinase activity was measured by Akt phosphorylation. The p110β activity was measured by lysophosphatidic acid stimulation of Akt phosphorylation in mouse embryonic fibroblasts. The activity of p110δ was measured by anti-FcεR1 antibody cross linking stimulation of CD63 movement to the surface of basophils. Finally, the activity of p110γ was measured by fMLP stimulation of CD63 antigen movement to the cell surface of basophils.

T1 sequence (P48736 whole entry, species assumed): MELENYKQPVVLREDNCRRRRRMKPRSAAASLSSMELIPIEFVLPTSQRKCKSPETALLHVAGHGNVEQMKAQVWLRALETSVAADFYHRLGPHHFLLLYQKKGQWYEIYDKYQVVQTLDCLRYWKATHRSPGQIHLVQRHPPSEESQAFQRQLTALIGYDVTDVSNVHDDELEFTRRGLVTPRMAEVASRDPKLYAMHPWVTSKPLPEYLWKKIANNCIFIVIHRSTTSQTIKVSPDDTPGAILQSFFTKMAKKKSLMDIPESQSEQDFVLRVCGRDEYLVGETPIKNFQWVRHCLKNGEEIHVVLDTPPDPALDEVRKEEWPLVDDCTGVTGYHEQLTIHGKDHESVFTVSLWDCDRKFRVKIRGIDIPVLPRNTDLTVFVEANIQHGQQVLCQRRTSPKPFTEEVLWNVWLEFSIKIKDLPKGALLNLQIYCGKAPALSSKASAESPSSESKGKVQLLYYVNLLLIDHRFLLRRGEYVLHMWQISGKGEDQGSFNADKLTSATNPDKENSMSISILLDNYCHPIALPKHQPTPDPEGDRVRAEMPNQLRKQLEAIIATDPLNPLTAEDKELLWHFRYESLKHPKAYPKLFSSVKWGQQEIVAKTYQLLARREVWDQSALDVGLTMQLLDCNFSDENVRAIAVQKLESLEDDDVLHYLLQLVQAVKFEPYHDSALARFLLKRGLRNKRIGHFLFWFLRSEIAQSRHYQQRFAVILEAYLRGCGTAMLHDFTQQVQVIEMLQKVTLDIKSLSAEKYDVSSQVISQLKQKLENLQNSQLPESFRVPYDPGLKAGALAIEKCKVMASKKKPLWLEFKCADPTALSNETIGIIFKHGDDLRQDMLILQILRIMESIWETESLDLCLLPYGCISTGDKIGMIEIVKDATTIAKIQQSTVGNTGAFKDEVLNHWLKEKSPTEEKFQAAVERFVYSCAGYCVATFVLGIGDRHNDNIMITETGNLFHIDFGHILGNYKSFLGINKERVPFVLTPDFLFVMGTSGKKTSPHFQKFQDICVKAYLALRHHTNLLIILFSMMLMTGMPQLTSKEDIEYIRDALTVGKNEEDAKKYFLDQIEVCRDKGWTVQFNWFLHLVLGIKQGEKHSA

Molecule `C[C@H](Nc1ncnc2[nH]cnc12)c1nc2ccc(F)cc2c(=O)n1-c1ccccc1` [Compound I] has a GI50 (SK-MEL-2) of 100 µM, a GI50 (UACC-62) of 1.43 µM and a GI50 (IGROV1) of 2.7 µM. The GI50 (ADR-RES) was 58.6 µM, the GI50 (PC-3) was 0.647 µM and the GI50 (EKVX) was 16.7 µM. It also gave a GI50 (SN12C) of 22.5 µM, a GI50 (TK-10) of 1.24 µM and a GI50 (LOX IMVI) of 36.1 µM. It also gave a GI50 (SNB-19) of 19.3 µM, a GI50 (T-47D) of 0.571 µM and a GI50 (UACC-257) of 17.4 µM. For the same molecule, the GI50 (HOP-62) was 14.8 µM, the “Tumor volume of A498 xenograft” value (A498 xenografts) was “significantly inhibited growth; also recorded: tumor volume approximately doubled” and the “Tumor volume of A498 xenograft” value (A498 xenografts; listed as compound I) was “significant reduction in tumor growth”. For the same molecule, the GI50 (MALME-3M) was 4.58 µM, the GI50 (MCF7) was 2.54 µM and the AUC (in vivo) was 18,000 ng-h/mL. The “Time after which plasma levels had essentially returned to zero” value (in vivo; 30 mg/kg) was 8 h, the “Time of peak plasma level after administration” value (in vivo; 30 mg/kg) was 2 to 4 h and the AUC (in vivo; AUC) was 15000 ng·h/mL. The GI50 (SK-MEL-5) was 31.3 µM, the GI50 (OVCAR-4) was 100 µM and the “Inhibition of tumor cell culture growth” value (OVCAR-3) was “strong inhibition of growth”. The GI50 (HCT-116) was 37.9 µM, the GI50 (KM12) was 2 µM and the GI50 (HS 578T) was 2.24 µM. For the same molecule, the IC50 (mTOR) was 100 µM, the GI50 (NCI-H226) was 100 µM and the EC50 (p110γ; FB, read-out: Cell-based assay EC50 p110γ, FB) was 3 µM. The EC50 (p110γ; WB, read-out: Cell-based assay EC50 p110γ, WB) was 5.4 µM.

Reference: US8546409B2, “Methods of treatment for solid tumors” (priority 2009, dated 2013)
